Where no end group is shown, it is not given here.
System: HTLV-IIIB virus (superinfection of L-2 cells)
Assay: Inhibition of superinfection of L-2 cells with HTLV-IIIB, fluorescent antibody technique using V-17 (anti-p18) antibody
Assay type: cell-based, HIV (Human Immunodeficiency Virus)
Conditions: peptide final concentration 1 mg/ml, mixed with HTLV-IIIB virus liquid M.O.I. = 3.2 for 30 min at room temperature, then inoculated into L-2 cells; checked every 4 days; Fig. 2

TKGPSKLNDRADSRRS [CD4 peptide (45-60)]
inhibitory effect on superinfection: not at all observed

From patent EP0523675A1, “Inhibitory agent against HIV superinfection” (priority 1991, dated 1993)
